Measurements from US8153614B2, “Treatment of osteoarthritis” (Glycoscience Laboratories, Inc., priority 2006, dated 2012).

Tested on: C57BL/6 mice, which spontaneously develop osteoarthritis
Assay: Macroscopic examination (India ink) of knee joint cartilage in the spontaneous osteoarthritis mouse model
Type: in vivo
Conditions: oral HA4 100 mg/10 ml/kg once daily for 2 weeks
Procedure: In this example, HA4 was administered to C57BL/6 mice, which spontaneously develop osteoarthritis, to examine effects thereof.
20-week-old male C57BL/6 mice were purchased from Charles River Laboratories Japan, Inc., and animals which developed osteoarthritis were used. The animals were divided into the negative control (treated with physiological saline) group and the oral HA4 (100 mg/10 ml/kg) treated group.
In this example, 10 mg/ml HA4 was prepared. Specifically, HA4 was prepared by the method of Tawada et al. (Tawada A, Masa T, Oonuki Y, Watanabe A, Matsuzaki Y, Asari A. Large-scale preparation, purification, and characterization of hyaluronan oligosaccharides from 4-mers to 52-mers. Glycobiology. 2002; 12(7): 421-6.), and the concentration was adjusted with physiological saline. Furthermore, physiological saline was prepared as a control.
In this example, the test substance or physiological saline was orally given to mice which developed osteoarthritis using an oral sonde once daily for 2 weeks.
Osteoarthritis curing effects were determined macroscopically. […] For this evaluation method, refer to Chang D G, Iverson E P, Schinagl R M, Sonoda M, Amiel D, Coutts R D, Sah R L. Quantitation and localization of cartilage degeneration following the induction of osteoarthritis in the rabbit knee. […]

tetrasaccharide hyaluronan [HA4]
Therapeutic effects against osteoarthritis: therapeutic effects against osteoarthritis were confirmed
MEAN score (remaining India ink) (saline control mean 4.8): MEAN 1.4
